Experimental data reported in patent US5294603A, “Pharmaceutical compositions containing didemnins” (The Board of Trustees of The University of Illinois, priority 1992, dated 1994).
In brackets after ≈: the same amount, converted by molar mass. Read-outs that look alike come from different tables or passages of the source. Numbered stars: 1 amine (or outer) side, 2 acyl side, 3 side chain; on linkers, the order of the positions; unused ones are H or OH. Bridge positions count the residues as written; N and C are the ends. Square brackets hold non-standard residues; d marks the D form. Peptide text beside a SMILES is read from it. * marks the point of attachment. X4 = CC[C@H](C)[C@@H](N[*:1])[C@@H](O)CC(=O)O[C@@H](C(=O)[C@H](C)C(=O)[*:2])C(C)C; X7 = CC[C@H](C)[C@@H](N[*:1])[C@@H](O)CC(=O)O[C@H](C(=NO)[C@H](C)C(=O)[*:2])C(C)C; X1 = CC[C@H](C)[C@@H](N[*:1])[C@@H](O)CC(=O)O[C@H](C(=O)[C@H](C)C(=O)[*:2])C(C)C; X3 = CC[C@H](C)[C@H](N[*:1])[C@@H](O)CC(=O)O[C@H](C(=O)[C@H](C)C(=O)[*:2])C(C)C; NMeY = CN[C@@H](Cc1ccc(O)cc1)C(=O)O; aThr = C[C@H](O)[C@H](N)C(=O)O; dNMeL = CN[C@H](CC(C)C)C(=O)O; Isobutyryl = CC(C)C(=O)*; Pyruvoyl = CC(=O)C(=O)*; Propionyl = CCC(=O)*

Assays:
[1] = test system: Nb2 cells, rat T-cell node lymphoma; experiment: Competitive binding with [3H]didemnin B to Nb2 cells; settings: 3 h at 37° C.
Description: The immunosuppressive assay was performed by measuring competitive binding of tested compounds with [^3 H]didemnin B to Nb2 cells, rat T-cell node lymphoma. See, Russell, D. H., et al., J. Immunology, 1987, 138, 276-284.
^a Competing didemnins incubated with approximately 25 ng of [^3

[2] = test system: L1210 murine leukemia cells; settings: Table 9
[3] = test system: CV-1 monkey kidney cells
[4] = test system: Visna virus (VIV); type: cell-based; design: key to % Protection / VIV Protection: I, indeterminate
[5] = test system: DNA synthesis in Nb2 node lymphoma cells; experiment: Inhibition of ongoing DNA synthesis in prolactin-stimulated Nb2 cells; type: cell-based, rat; settings: Nb2 cells stimulated with prolactin for 24 h
Description: Also inhibitions of protein and DNA synthesis of several compounds were measured using Nb2 node lymphoma cells which were stimulated by a treatment of cells with prolactin. (ibid.)
^a Nb2 cells were stimulated with prolactin for 24 h, then exposed to
^b 50% Inhibitory concentration, calculated with linear regression

[6] = test system: L1210 cells
[7] = test system: VSV; type: cell-based, vesicular stomatitis virus
[8] = test system: HSV-1; type: cell-based, Herpes simplex virus Type I
[9] = test system: BHK = Baby hamster kidney cells
[10] = test system: L1210
[11] = test system: cells of the VIV assay (not named)

Row | SMILES | Inhibition of [3H]didemnin B binding (%) ([1]; 0.001 μg/mL) | Inhibition of [3H]didemnin B binding (%) ([1]; 0.01 μg/mL) | Inhibition of [3H]didemnin B binding (%) ([1]; 0.1 μg/mL) | Inhibition of [3H]didemnin B binding (%) ([1]; 1 μg/mL) | Cytotoxicity L1210 IC50 [2] | CV-1 [3] | VIV Protection [4] | IC50 DNA [5] | IC50 [6] | cytotoxicity compared with DDB [6] | VSV [7] | HSV-1 [8] | BHK [9] | Cytotoxicity percent L1210 inhibition ([10]; dose 5 ng/mL) | Cytotoxicity percent L1210 inhibition ([10]; dose 12.5 ng/mL) | Cytotoxicity percent L1210 inhibition ([10]; dose 25 ng/mL) | VIV Toxicity [11] | cytotoxicity (result in words) ([10]; Table 1 footnote and text)
1 | CC[C@H](C)[C@H]1NC(=O)[C@@H](NC(=O)[C@@H](CC(C)C)NC)[C@@H](C)OC(=O)[C@H](Cc2ccc(OC)cc2)N(C)C(=O)[C@@H]2CCCN2C(=O)[C@H](CC(C)C)NC(=O)[C@@H](C)C(=O)[C@@H](C(C)C)OC(=O)C[C@@H]1O [Epididemnin A (15), Epididemnin A] (H-[dNMeL]T[X4]LP[NMeY](Me); ester 2-C) | 0% | 3% | 9% | 12% | 0.3 µg/mL | 0 | < 0 | inactive (1 g) |  |  |  |  |  |  |  |  |  | 
2 | CC[C@H](C)[C@H]1NC(=O)[C@@H](NC(=O)[C@@H](CC(C)C)N(C)C(=O)[C@H]2CCCN2C(=O)C(C)=O)[C@@H](C)OC(=O)[C@H](Cc2ccc(OC)cc2)N(C)C(=O)[C@@H]2CCCN2C(=O)[C@H](CC(C)C)NC(=O)[C@@H](C)C(=O)[C@H](C(C)C)OC(=O)C[C@@H]1O [Pyruv-D-Pro-DA, Pyruv-D-Pro Didemnin A] (Pyruvoyl-[dP][dNMeL]T[X1]LP[NMeY](Me); ester 3-C) |  |  |  |  |  |  |  |  | 0.006 µg/mL (≈ 5.4 nM) | only partially active | + ++ |  |  |  |  |  |  | 
3 | CC[C@H](C)[C@H]1NC(=O)[C@@H](NC(=O)[C@@H](CC(C)C)N(C)C(=O)[C@@H]2CCCN2C(=O)C(C)C)[C@@H](C)OC(=O)[C@H](Cc2ccc(OC)cc2)N(C)C(=O)[C@@H]2CCCN2C(=O)[C@H](CC(C)C)NC(=O)[C@@H](C)C(=O)[C@H](C(C)C)OC(=O)C[C@@H]1O [[Isobutyryl^9]didemnin B] (Isobutyryl-P[dNMeL]T[X1]LP[NMeY](Me); ester 3-C) | 2% | 4% | 59% | 75% | 0.0002 µg/mL |  | -93 |  |  |  |  | ++ + | 0, PT |  |  |  |  | 
4 | CC[C@H](C)[C@@H]1NC(=O)[C@@H](NC(=O)[C@@H](CC(C)C)N(C)C(C)=O)[C@H](C)OC(=O)[C@H](Cc2ccc(OC)cc2)N(C)C(=O)[C@@H]2CCCN2C(=O)[C@H](CC(C)C)NC(=O)[C@@H](C)C(=O)[C@H](C(C)C)OC(=O)C[C@@H]1O [N-Acetyldidemnin A (54), N-Acetyl didemnin A] (Ac-[dNMeL][aThr][X3]LP[NMeY](Me); ester 2-C) | 2% | 12% | 72% | 80% | 0.0003 µg/mL |  | I | 70 ng/mL (≈ 71 nM) |  |  |  |  |  | 89% | 93% | 94% | 94 | 
5 | CC[C@H](C)[C@H]1NC(=O)[C@@H](NC(=O)[C@@H](CC(C)C)NC)[C@@H](C)OC(=O)[C@H](Cc2ccc(OC)cc2)N(C)C(=O)[C@@H]2CCCN2C(=O)[C@H](CC(C)C)NC(=O)[C@@H](C)C(=NO)[C@H](C(C)C)OC(=O)C[C@@H]1O [[HydroxyiminoHip^2]-Didemnin A (65), [HydroxyiminoHip^2]didemnin A] (H-[dNMeL]T[X7]LP[NMeY](Me); ester 2-C) |  |  |  |  | 0.02 µg/mL | 0 |  |  |  |  |  |  |  |  |  |  |  | 
6 | CCC(=O)N(C)[C@H](CC(C)C)C(=O)N[C@@H]1C(=O)N[C@H]([C@@H](C)CC)[C@@H](O)CC(=O)O[C@@H](C(C)C)C(=O)[C@H](C)C(=O)N[C@@H](CC(C)C)C(=O)N2CCC[C@H]2C(=O)N(C)[C@@H](Cc2ccc(OC)cc2)C(=O)O[C@@H]1C [(N-Propionyl)Didemnin A (98), N-propionyl-didemnin A] (Propionyl-[dNMeL]T[X1]LP[NMeY](Me); ester 2-C) | 3% | 2% | 40% | 72% | 0.0003 µg/mL |  | I |  |  |  |  |  | 0, PT | 93% | 95% | 95% | 92 | retained the cytotoxicity of didemnin B
7 | CC[C@H](C)[C@H]1NC(=O)[C@@H](NC(=O)[C@@H](CC(C)C)N(C)C(=O)[C@@H]2CCCN2C(=O)[C@H](C)O)[C@@H](C)OC(=O)[C@H](Cc2ccc(O)cc2)NC(=O)[C@@H]2CCCN2C(=O)[C@H](CC(C)C)NC(=O)[C@@H](C)C(=O)[C@H](C(C)C)OC(=O)C[C@@H]1O [Didemnin N (13), Didemnin N] | 3% | 6% | 4% | 10% | 0.03 µg/mL | 0 |  | 200,000 ng/mL |  |  |  |  |  |  |  |  |  | 
8 | CC[C@H](C)[C@H]1NC(=O)[C@@H](NC(=O)[C@@H](CC(C)C)NC)[C@@H](C)OC(=O)[C@H](Cc2ccc(OC)cc2)N(C)C(=O)[C@@H]2CCCN2C(=O)[C@H](CC(C)C)NC(=O)[C@@H](C)[C@@H](O)[C@H](C(C)C)OC(=O)C[C@@H]1OC(C)=O [O-Acetyl-[H2-(2S,3R,4S)Hip^2]didemnin A] | 0% | 0% | 2% | 19% | 1 µg/mL | 0 |  |  |  |  |  |  |  |  |  |  |  | 
